Earlier results as cited in patent publication US20230173142A1, “BALLISTIC DELIVERY TO MULTILAYERED TISSUES AND RELATED PARTICLES, COMPOSITIONS, METHODS AND SYSTEMS” (CALIFORNIA INSTITUTE OF TECHNOLOGY, priority 2021, published 2023).
“Also recorded” adds a separate entry of the source. Where two headings read alike, the source gives them in different places. One block for each compound: values may come before it.

How the values were obtained:
ear hole punch injury = conditions: multiple peripheral subcutaneous injections of hydrogel over a 10-day period; Swiss Webster mice
rabbit corneas = rabbit corneas ex vivo
lysyl oxidase (LOX) = biological target: T1, lysyl oxidase (LOX) (Homo sapiens, UniProt P28300); conditions: increasing [Cu^2+]
T1 sequence (P28300 169-417): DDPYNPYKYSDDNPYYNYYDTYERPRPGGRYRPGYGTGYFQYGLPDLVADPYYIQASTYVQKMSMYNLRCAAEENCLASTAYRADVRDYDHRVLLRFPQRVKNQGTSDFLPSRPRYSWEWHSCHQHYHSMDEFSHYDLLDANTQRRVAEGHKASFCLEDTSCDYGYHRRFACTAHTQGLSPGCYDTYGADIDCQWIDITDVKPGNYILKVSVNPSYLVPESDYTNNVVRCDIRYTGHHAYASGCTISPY

rabbit cornea = rabbit cornea treated topically

Compound: O=C(O)c1c[nH]c2c(ccc3cccnc32)c1=O [1,4-DPCA, 1,4-dihydrophenonthrolin-4-one-3-carboxylic acid]
wound healing after ear hole punch injury (ear hole punch injury): regenerative wound healing

LOX activity (lysyl oxidase (LOX)): restore LOX activity
Compound: [Cu+2] [Copper]
biomechanical strength (rabbit corneas): increase biomechanical strength | crosslinking as measured by LNL (rabbit cornea): increase crosslinking | biomechanical strength (human cadaver corneas): increase biomechanical strength

Compound: EGF: growth factor loaded in carrier material
Effect (wound healing; Material: Nanoparticle): Accelerated migration of inflammatory cells during the inflammation; also recorded: Enhanced wound closure, collagen deposition, angiogenesis, and

Compound: SDF-1: stromal cell-derived factor-1
Effect (wound healing; Material: Hydrogel): Accelerated wound healing and increased vascularization

Compound: VEGF
Effect (wound healing; Material: Hydrogel): Enhanced wound healing, granulation, collagen deposition, | Effect (wound healing; Material: Lyotropic liquid crystal): Enhanced vascularization

Compound: aFGF: growth factor/cytokine loaded in hydrogel
Effect (wound healing; Material: Hydrogel): Accelerated cell proliferation, neo-vascularization, and wound healing

Compound: bFGF: growth factor/cytokine loaded in carrier material
Effect (wound healing; Material: Concentrate): Enhanced wound closure, angiogenesis, collagen deposition, | Effect (wound healing; Material: Hydrogel): Enhanced wound closure, collagen deposition, vascularization,; also recorded: Enhanced wound closure, organized collageno depostion,; also recorded: Enhanced the formation of granulation tissue, increased angiogenesis,
